From patent US20210128735A1, “BIOCOMPATIBLE COPOLYMER CONTAINING MULTIPLE ACTIVE AGENT MOLECULES” (priority 2018, published 2021) come the findings set out here.

The series has as its system HepG2 cells. The experiment in a line: Exploratory toxicity: eight cell health parameters (CHP) by automated fluorescent cellular imaging (ArrayScan). Type of series: cell-based. The settings on record: for MTD (row Cell count): concentration at which <20% cell loss was observed; for AC50: Homo sapiens. Here is the method: The polymeric carriers of this disclosure are not biodegradable. […] An exploratory toxicity study of a polymeric carrier of the present disclosure (without payload) was performed. Briefly, HepG2 cells were plated on 96-well black walled, clear bottomed polystyrene plates at 100 μL per well. Test compound was a H2N-G3-Cellophil copolymer (12 kDa) containing DMA and AK (90/10 mol %) that was prepared by the procedure described in example 13, step 7. The HepG2 cells were dosed with test compound at concentrations from 0.04 to 100 μM. At the end of 72-h incubation at 37° C., appropriate dies or antibodies were added to the cultures. The plates were then scanned using an automated fluorescent cellular imager (ArrayScan®, Thermo Scientific Cellomics).
The following eight cell health parameters (CHP) were evaluated:
Cell count: A decreasing number of cells per well indicates toxicity due to necrosis, apoptosis or a reduction in cellular proliferation. Nuclear size: An increase in nuclear area can indicate necrosis or G2 cell cycle arrest, and a decrease can indicate apoptosis. DNA structure: An increase in DNA structure can indicate chromosomal instability and DNA fragmentation. Mitochondrial mass: A decrease in mitochondrial mass indicates loss of total mitochondria and an increase implies mitochondrial swelling or an adaptive response to cellular energy demands. Mitochondrial membrane potential (Δψm): A decrease indicates a loss of mitochondrial integrity, typically resulting in apoptotic signaling; an increase in mitochondrial membrane potential indicates an adaptive response to cellular energy demands. Oxidative stress: An increase in reactive oxygen species (ROS) is an early cytotoxic response. Glutathione content: A decrease in glutathione (GSH) content can result from production of ROS or from direct binding to tested compound. An increase in GSH content represents an adaptive cellular response to oxidative stress. Cellular ATP: After cell lysis, ATP is released from the cell. Cells which are not metabolically active will not release any ATP. Therefore, a decrease in metabolically active cells will result in a decrease in the level of ATP detected.

Where [1] appears, read: HepG2, 72-h incubation, NR = no response.

The structures appear in SMILES notation. Like-named read-outs stand apart in the source and are kept apart here. Some results are limits rather than exact numbers.

Consider `CCCCS(=N)(=O)CCC(N)C(=O)O` [control 2, L-buthionine-sulfoximine], for which the “MEC, Cellular ATP” value turned out to be 14.4 µM and the “MEC, Glutathione content” value was 1.7 µM. For the same molecule, the “MTD (row Cell count)” value under setting [1] was 40 µM.
One may read the AC50 as the midpoint of the concentration-response curve, whichever way the signal moves. In the case of `N#CC(C#N)=NNc1cccc(Cl)c1` [control 1, carbonyl cyanide 3-chlorophenylhydrazone], the “MEC, Cell count” value (HepG2, 72-h incubation at 37° C., 0.04 to 100 μM, MEC = lowest dose at which an effect is detected, NR = no response) came to 1.73 µM. The “MEC, Cellular ATP” value under setting [1] is 3.13 µM. Further, the “MEC, Nuclear size” value under setting [1] amounted to 3.76 µM. Also, under setting [1], the “MEC, Oxidative stress” value amounted to 0.539 µM. Moreover, the “MEC, DNA structure” value (HepG2, 72-h incubation, NR = no response, NS = not statistical significant) was 0.63 µM. The “MTD (row Cell count)” value under setting [1] was determined as 2 µM. Also, the AC50 was 46.7 µM (HepG2, 72-h incubation, NR = no response, NS = not statistical significant, read-out: AC50, DNA structure); 4.15 µM (HepG2, 72-h incubation, NR = no response, read-out: AC50, Cellular ATP); more than 100 µM (HepG2, 72-h incubation, NR = no response, read-out: AC50, Glutathione content); more than 100 µM (HepG2, 72-h incubation, NR = no response, read-out: AC50, Mitochondrial mass); more than 100 µM (HepG2, 72-h incubation, NR = no response, read-out: AC50, Mitochondrial membrane potential); 8.09 µM (HepG2, 72-h incubation, NR = no response, read-out: AC50, Nuclear size). Further, the AC50 (HepG2, 72-h incubation, NR = no response, read-out: AC50, Oxidative stress) was found to be 22.4 µM and the AC50 (HepG2, 72-h incubation, concentration at which 50% of the maximum effect is observed, NR = no response, read-out: AC50, Cell count) stood at 2.54 µM.
